Laboratory results taken from ChEMBL document CHEMBL5046315, “CRCM5484: A BET-BDII Selective Compound with Differential Anti-leukemic Drug Modulation” (J Med Chem, 2022).
Calls of active or inactive are those of the source. No cut-off for these calls is given here.

Assays:
MOLM-14 [1] = assay: Potentiation of selinexor-induced antileukemic activity against human MOLM-14 cells at 4.3 uM in presence of bone-marrow derived stromal cell-conditioned medium; type: functional, cell-based
U-937 [2] = assay: Potentiation of idarubicin-induced antileukemic activity against human U-937 cells at 4.3 uM in presence of bone-marrow derived stromal cell-conditioned medium; type: functional, cell-based
CCRF-CEM [3] = assay: Potentiation of hydroxychloroquine-induced antileukemic activity against human CCRF-CEM cells at 4.3 uM in presence of bone-marrow derived stromal cell-conditioned medium; type: functional, cell-based
U-937 [4] = assay: Potentiation of cladribine-induced antileukemic activity against human U-937 cells at 4.3 uM in presence of bone-marrow derived stromal cell-conditioned medium; type: functional, cell-based
CCRF-CEM [5] = assay: Potentiation of SGI-1776-induced antileukemic activity against human CCRF-CEM cells at 4.3 uM in presence of bone-marrow derived stromal cell-conditioned medium; type: functional, cell-based
CCRF-CEM [6] = assay: Potentiation of entinostat-induced antileukemic activity against human CCRF-CEM cells at 4.3 uM in presence of bone-marrow derived stromal cell-conditioned medium; type: functional, cell-based
U-937 [7] = assay: Potentiation of ponatinib-induced antileukemic activity against human U-937 cells at 4.3 uM in presence of bone-marrow derived stromal cell-conditioned medium; type: functional, cell-based
U-937 [8] = assay: Potentiation of sunitinib-induced antileukemic activity against human U-937 cells at 4.3 uM in presence of bone-marrow derived stromal cell-conditioned medium; type: functional, cell-based
U-937 [9] = assay: Potentiation of venetoclax-induced antileukemic activity against human U-937 cells at 4.3 uM in presence of bone-marrow derived stromal cell-conditioned medium; type: functional, cell-based
U-937 [10] = assay: Potentiation of entinostat-induced antileukemic activity against human U-937 cells at 4.3 uM in presence of bone-marrow derived stromal cell-conditioned medium; type: functional, cell-based
MOLM-14 [11] = assay: Potentiation of VX680-induced antileukemic activity against human MOLM-14 cells at 4.3 uM in presence of bone-marrow derived stromal cell-conditioned medium; type: functional, cell-based
MOLM-14 [12] = assay: Potentiation of seliciclib-induced antileukemic activity against human MOLM-14 cells at 4.3 uM in presence of bone-marrow derived stromal cell-conditioned medium; type: functional, cell-based
MOLM-14 [13] = assay: Potentiation of lapatinib-induced antileukemic activity against human MOLM-14 cells at 4.3 uM in presence of bone-marrow derived stromal cell-conditioned medium; type: functional, cell-based
U-937 [14] = assay: Potentiation of prima1-induced antileukemic activity against human U-937 cells at 4.3 uM in presence of bone-marrow derived stromal cell-conditioned medium; type: functional, cell-based
CCRF-CEM [15] = assay: Potentiation of -mastinib -induced antileukemic activity against human CCRF-CEM cells at 4.3 uM in presence of bone-marrow derived stromal cell-conditioned medium; type: functional, cell-based
[16] = system: Acute myeloid leukemic cell; assay: Potentiation of vorinostat-induced antileukemic activity against patient derived mouse xenografted acute myeloid leukemic cells assessed as cell viability at 0.16 to 10 uM in presence of bone-marrow derived stromal cell-conditioned medium measured after 72 to 144 hrs by cell-titre glo luminescent assay; type: functional, cell-based; conditions: Homo sapiens, dose 0.16-10 µM, time lower […], time upper 144.0 hrs
MOLM-14 [17] = assay: Potentiation of decitabine-induced antileukemic activity against human MOLM-14 cells at 4.3 uM in presence of bone-marrow derived stromal cell-conditioned medium; type: functional, cell-based
CCRF-CEM [18] = assay: Potentiation of VX680-induced antileukemic activity against human CCRF-CEM cells at 4.3 uM in presence of bone-marrow derived stromal cell-conditioned medium; type: functional, cell-based
U-937 [19] = assay: Potentiation of SGI-1776-induced antileukemic activity against human U-937 cells at 4.3 uM in presence of bone-marrow derived stromal cell-conditioned medium; type: functional, cell-based
MOLM-14 [20] = assay: Potentiation of JQ1-induced antileukemic activity against human MOLM-14 cells at 4.3 uM in presence of bone-marrow derived stromal cell-conditioned medium; type: functional, cell-based
CCRF-CEM [21] = assay: Potentiation of temsirolimus-induced antileukemic activity against human CCRF-CEM cells at 4.3 uM in presence of bone-marrow derived stromal cell-conditioned medium; type: functional, cell-based
MOLM-14 [22] = assay: Potentiation of vincristine-induced antileukemic activity against human MOLM-14 cells at 4.3 uM in presence of bone-marrow derived stromal cell-conditioned medium; type: functional, cell-based
CCRF-CEM [23] = assay: Potentiation of docetaxel-induced antileukemic activity against human CCRF-CEM cells at 4.3 uM in presence of bone-marrow derived stromal cell-conditioned medium; type: functional, cell-based
CCRF-CEM [24] = assay: Potentiation of volasertib-induced antileukemic activity against human CCRF-CEM cells at 4.3 uM in presence of bone-marrow derived stromal cell-conditioned medium; type: functional, cell-based
U-937 [25] = assay: Potentiation of etoposide-induced antileukemic activity against human U-937 cells at 4.3 uM in presence of bone-marrow derived stromal cell-conditioned medium; type: functional, cell-based
MOLM-14 [26] = assay: cells; conditions: Homo sapiens, MOLM-14, 72 h
Description: Cytotoxicity against human MOLM-14 cells assessed as reduction in cell viability incubated for 72 hrs

U-937 [27] = assay: Potentiation of docetaxel-induced antileukemic activity against human U-937 cells at 4.3 uM in presence of bone-marrow derived stromal cell-conditioned medium; type: functional, cell-based
CCRF-CEM [28] = assay: Potentiation of dasatinib-induced antileukemic activity against human CCRF-CEM cells at 4.3 uM in presence of bone-marrow derived stromal cell-conditioned medium; type: functional, cell-based
CCRF-CEM [29] = assay: Potentiation of rigosertib-induced antileukemic activity against human CCRF-CEM cells at 4.3 uM in presence of bone-marrow derived stromal cell-conditioned medium; type: functional, cell-based
CCRF-CEM [30] = assay: Potentiation of decitabine-induced antileukemic activity against human CCRF-CEM cells at 4.3 uM in presence of bone-marrow derived stromal cell-conditioned medium; type: functional, cell-based
MOLM-14 [31] = assay: Potentiation of hydroxychloroquine-induced antileukemic activity against human MOLM-14 cells at 4.3 uM in presence of bone-marrow derived stromal cell-conditioned medium; type: functional, cell-based
CCRF-CEM [32] = assay: Potentiation of luminespid-induced antileukemic activity against human CCRF-CEM cells at 4.3 uM in presence of bone-marrow derived stromal cell-conditioned medium; type: functional, cell-based
MOLM-14 [33] = assay: Potentiation of etoposide-induced antileukemic activity against human MOLM-14 cells at 4.3 uM in presence of bone-marrow derived stromal cell-conditioned medium; type: functional, cell-based
MOLM-14 [34] = assay: Potentiation of idasanutlin-induced antileukemic activity against human MOLM-14 cells at 4.3 uM in presence of bone-marrow derived stromal cell-conditioned medium; type: functional, cell-based
MOLM-14 [35] = assay: Potentiation of bosutinib-induced antileukemic activity against human MOLM-14 cells at 4.3 uM in presence of bone-marrow derived stromal cell-conditioned medium; type: functional, cell-based
MOLM-14 [36] = assay: Potentiation of cladribine-induced antileukemic activity against human MOLM-14 cells at 4.3 uM in presence of bone-marrow derived stromal cell-conditioned medium; type: functional, cell-based
U-937 [37] = assay: Potentiation of everolimus-induced antileukemic activity against human U-937 cells at 4.3 uM in presence of bone-marrow derived stromal cell-conditioned medium; type: functional, cell-based
CCRF-CEM [38] = assay: Potentiation of sunitinib-induced antileukemic activity against human CCRF-CEM cells at 4.3 uM in presence of bone-marrow derived stromal cell-conditioned medium; type: functional, cell-based
CCRF-CEM [39] = assay: Potentiation of EPZ5676-induced antileukemic activity against human CCRF-CEM cells at 4.3 uM in presence of bone-marrow derived stromal cell-conditioned medium; type: functional, cell-based
CCRF-CEM [40] = assay: Potentiation of BKM120-induced antileukemic activity against human CCRF-CEM cells at 4.3 uM in presence of bone-marrow derived stromal cell-conditioned medium; type: functional, cell-based
NB-4 = assay: Cytotoxicity against human NB-4 cells assessed as reduction in cell viability incubated for 72 hrs; type: functional, cell-based; conditions: NB-4, 72 h

CC(=O)N1CCc2c(sc3nc(SCC(=O)Nc4cccnc4C)n(Cc4ccco4)c(=O)c23)C1
Activity (MOLM-14 [1]): inactive | Activity (U-937 [2]): inactive | Activity (CCRF-CEM [3]): inactive | Activity (U-937 [4]): inactive | Activity (CCRF-CEM [5]): inactive | Activity (CCRF-CEM [6]): inactive | Activity (U-937 [7]): inactive | Activity (U-937 [8]): inactive | Activity (U-937 [9]): inactive | Activity (U-937 [10]): inactive | Activity (MOLM-14 [11]): inactive | Activity (MOLM-14 [12]): inactive | Activity (MOLM-14 [13]): inactive | Activity (U-937 [14]): inactive | Activity (CCRF-CEM [15]): inactive | Activity [16]: Active | Activity (MOLM-14 [17]): inactive | Activity (CCRF-CEM [18]): inactive | Activity (U-937 [19]): inactive | Activity (MOLM-14 [20]): inactive | Activity (CCRF-CEM [21]): inactive | Activity (MOLM-14 [22]): inactive | Activity (CCRF-CEM [23]): inactive | Activity (CCRF-CEM [24]): inactive | Activity (U-937 [25]): inactive | EC50 (MOLM-14 [26]): 8.5 µM | Activity (U-937 [27]): inactive | Activity (CCRF-CEM [28]): inactive | Activity (CCRF-CEM [29]): inactive | Activity (CCRF-CEM [30]): inactive | Activity (MOLM-14 [31]): inactive | Activity (CCRF-CEM [32]): inactive | Activity (MOLM-14 [33]): inactive | Activity (MOLM-14 [34]): inactive | Activity (MOLM-14 [35]): inactive | Activity (MOLM-14 [36]): inactive | Activity (U-937 [37]): inactive | Activity (CCRF-CEM [38]): inactive | Activity (CCRF-CEM [39]): inactive | Activity (CCRF-CEM [40]): inactive | EC50 (NB-4): > 5 µM
